The target in test [1] is T1, Sigma intracellular receptor 2 (Rattus norvegicus, UniProt Q5U3Y7).
T1 sequence (Q5U3Y7 whole entry): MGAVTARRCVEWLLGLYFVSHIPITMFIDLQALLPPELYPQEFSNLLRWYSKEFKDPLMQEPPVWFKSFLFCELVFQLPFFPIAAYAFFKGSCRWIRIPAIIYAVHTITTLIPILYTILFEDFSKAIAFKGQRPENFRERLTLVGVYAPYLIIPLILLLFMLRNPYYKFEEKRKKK
In words: Displacement of [3H]-di-o-tolylguanidine from sigma2 receptor in rat liver membrane incubated for 120 mins measured for 5 mins by scintillation counting method. Format: cell membranes. Background: Displacement assays read how much labelled ligand stays bound in the presence of the test substance.

Test [2] in a line: Displacement of [3H]-(+)-MK-801 from NMDA PCP binding site in pig brain cortex membrane incubated for 120 mins measured for 5 mins by scintillation counting method. In kind it is cell membranes, Sus scrofa.
The target in test [3] is Sigma non-opioid intracellular receptor 1 (Cavia porcellus, UniProt Q60492). Kind of test: Displacement of [3H]-(+)-pentazocine from sigma1 receptor in guinea pig brain cortex membrane incubated for 120 mins measured for 5 mins by scintillation counting method. In kind it is cell membranes.

Where only a bound is given, the exact number is not on record here.

Chain of Sigma non-opioid intracellular receptor 1 (Q60492 whole entry): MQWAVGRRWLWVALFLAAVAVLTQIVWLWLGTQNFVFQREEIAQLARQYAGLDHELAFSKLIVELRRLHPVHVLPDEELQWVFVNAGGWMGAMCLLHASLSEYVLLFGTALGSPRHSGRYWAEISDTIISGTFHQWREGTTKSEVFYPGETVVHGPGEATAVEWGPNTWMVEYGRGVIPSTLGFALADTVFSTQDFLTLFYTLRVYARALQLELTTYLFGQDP

Turning to `NCCC1CC2OC(Cc3ccccc32)O1` (mixture of isomers), the Ki in test [1], in test [2] and in test [3] was greater than 1 µM throughout.

As to `c1ccc(CN(CCC2CC3OC(Cc4ccccc43)O2)Cc2ccccc2)cc1` (racemic; 22b), the Ki – broadly, the equilibrium dissociation constant of an inhibitor or competing ligand from its target – in test [1] is greater than 1 µM; in test [3], 0.782 µM.

In the case of `c1ccc(CNCCC2CC3OC(Cc4ccccc43)O2)cc1` (racemic; 21b), the inhibition constant Ki in test [1] stood at 0.153 µM; in test [3], 0.0059 µM.

For the molecule `NCCC1CC2OC(Cc3ccccc32)O1` (racemic), the Ki in test [1] and in test [3] was greater than 1 µM in each case.

For `c1ccc(CNCCC2CC3OC(Cc4ccccc43)O2)cc1` (racemic; 21a), the Ki in test [1] was greater than 1 µM; in test [2], greater than 1 µM; in test [3], 0.03 µM.

In the case of `CN(C)CCC1CC2OC(Cc3ccccc32)O1` (racemic), the inhibitory constant (Ki) in test [1], in test [2] and in test [3] was greater than 1 µM throughout.

As to `c1ccc(CN(CCC2CC3OC(Cc4ccccc43)O2)Cc2ccccc2)cc1` (racemic; 22a), the Ki in test [1] is greater than 1 µM; in test [2] it was greater than 1 µM; in test [3], 1.4 µM.

Values taken from ChEMBL document CHEMBL4038283, “Synthesis of conformationally restricted 1,3-dioxanes to analyze the bioactive conformation of 1,3-dioxane-based σ1 and PCP receptor antagonists” (Bioorg Med Chem, 2017).
